Source: ChEMBL document CHEMBL1128241, “Molecular similarity matrices and quantitative structure-activity relationships: a case study with methodological implications” (J Med Chem, 1995)

experiment: Partition coefficient (logP); format: physicochemical; settings: octanol/water

In order of rising logP:
1. ClC=C(Cl)Cl [TRICHLOROETHYLENE]  0.96
2. ClC(Cl)=C(Cl)Cl [TETRACHLOROETHYLENE]  1.27
3. ClC(Cl)C(Cl)(Cl)Cl [PENTACHLOROETHANE]  5.72

same assay, conditions: octanol/water; read-out: logP

In order of rising logP:
1. Cl/C=C/Cl  0.65
2. Cl/C=C/CCl [1,3-DICHLOROPROPENE]  1.19
3. C=C(Cl)Cl [1,1-DICHLOROETHENE]  1.21
4. ClCCl [METHYLENE CHLORIDE]  1.26
5. ClCBr  1.4
6. ClCC=C(Cl)Cl  1.5
7. ClCCBr  1.62
8. CCBr [BROMOETHANE]  1.63
9. ClCCCCl  1.74
10. C=C(Cl)CCl  1.75
11. C/C(Cl)=C/Cl  1.79
12. CC(C)=CBr  1.8
13. CC(Cl)Cl  1.8
14. ClCCCBr  1.88
15. C=C(C)CCl  1.89
16. CC(C)=CCl  1.89
17. ClCC(Cl)CCl [1,2,3-TRICHLOROPROPANE]  2.01
18. C=C(CCl)CCl  2.01
19. CC(Cl)CCl (stereo not drawn)  2.02
20. CC(Br)CCl (stereo not drawn)  2.16
21. CC(Cl)CCCl (stereo not drawn)  2.28
22. FC(Cl)(Cl)Cl [TRICHLOROMONOFLUOROMETHANE]  2.29
23. CC(C)(Cl)Cl  2.34
24. BrC(Br)Br [BROMOFORM]  2.38
25. ClCCCCBr  2.42
26. CC(C)CCl  2.44
27. CC(C)(C)Cl  2.44
28. CC(C)(C)Br  2.45
29. ClC(Br)Br [DIBROMOCHLOROMETHANE]  2.48
30. CC(Cl)(Cl)Cl [TRICHLOROETHANE]  2.5
31. CC(Cl)C(C)Cl (stereo not drawn)  2.56
32. CCC(C)Cl (stereo not drawn)  2.57
33. CC(C)CBr  2.58
34. ClC(Cl)C(Cl)Cl [1,1,2,2-TETRACHLOROETHANE]  2.66
35. ClC(Cl)Br [BROMODICHLOROMETHANE]  2.67
36. CCC(C)Br (stereo not drawn)  2.71
37. CCCCBr [1-BROMOBUTANE]  2.71
38. FC(Cl)(Br)Br  2.8
39. ClC(Cl)(Cl)Cl [CARBON TETRACHLORIDE]  2.83
40. CCC(C)(C)Br  2.99
41. ClCC(Cl)(Cl)Cl  3.05
42. ClC(Cl)(Cl)Br  3.1
43. CCCCCCl  3.11
44. CCC(C)CBr (stereo not drawn)  3.12
45. CC(C)CCBr  3.12
46. CCCCCBr  3.25
47. CCCCCCCl  3.65
48. ClC(Cl)(Cl)C(Cl)(Cl)Cl [HEXACHLOROETHANE]  4.62
49. CCCCCCCCCl  4.85
50. CCCCCCCCBr  4.87
